According to patent US11666580B2, “Mechanism of resistance to bet bromodomain inhibitors” (Dana-Farber Cancer Institute, Inc., priority 2015, dated 2023):

How the values were obtained:
[1] = system: xenografts derived from SUM159R cells; assay: Xenograft assay, SUM159R (BBI-resistant SUM159); assay type: in vivo, mice; conditions: administered along with JQ1
Procedure: (§1) For xenograft assays 5-6-weeks old female CrTac:NCr-Foxn1^nu and NOD.Cg-Prkdc^scid Il2rg^tm1Sug/JicTac mice were purchased from Taconic. Tumors were induced by bilateral orthotopic mammary fat pad injection of 1×10^6 cells in 50% Matrigel (BD Biosciences) in DMEM/F12 or Medium 171 (except for IDC50-X cells, which were injected with 3% FBS and 4 mg/ml collagen gel in Medium 171). Animal experiments were conducted following protocol 11-023 approved by the Dana-Farber Cancer Institute Animal Care and Use Committee.

[2] = system: tumors derived from BBI-resistant SUM149 cells; assay: Xenograft assay, BBI-resistant SUM149; assay type: in vivo, mice; conditions: administered along with JQ1
Procedure: as §1

[3] = system: SUM149, SUM149R, SUM159, and SUM159R cells; assay: Synergy studies (ATPlite, combination indices, isobolograms); assay type: cell-based, human
Procedure: SUM149, SUM149R, SUM159, and SUM159R cells were seeded in sterile, white, opaque 384-well microtiter plates (Thermo), using an automated dispensing system (BioTek EL406), at 1,000 cells per well in 50 μl of media. Drugs were delivered in DMSO by robotic pin transfer with a JANUS workstation (100 nl) to achieve a matrix of pairwise dose-response incubations of each compound, each pair having eight replicates. Following 72 hours of incubation, ATP levels were determined for treated cells and vehicle controls (ATPlite, PerkinElmer). Data were normalized to vehicle controls. Combination indices were determined using the median-effect principle of Chou and Talalay^49 (CalcuSyn Software). Isobologram plots were generated with GraphPad Prism software. Points represent paired values of drug concentrations assessed for synergism. The diagonal line signifies drug additivity. Points above the line represent antagonistic drug combinations, and those below the line represent synergistic drug combinations. Synergy assays were performed in triplicates and repeated 2-3 times.

[4] = system: MDR (multi drug resistance) pumps in SUM159 and SUM159R cells; assay: Multi-Drug Resistance (MDR) assay; assay type: cell-based, human; conditions: with JQ1
Procedure: Cell viability and growth assays (FIGS. 1A-1B, FIGS. 3A-3E, 3G, FIGS. 5D-5F, FIGS. 6C, 6E, 6I, FIG. 7A, FIG. 10D, FIGS. 14A-14C), cycle, apoptosis, and MDR assays were performed in triplicates and repeated 2-3 times. For cell proliferation assays, cells were plated at 500 cells per well in 96-well plates and treated the next day with inhibitors, DMSO or doxycycline (500 ng). Cells were cultured at 37° C. with 5% CO2 in the media described-above, and cell viability was measured using CellTiter-Glo three days after treatments. For cell growth assays, cells were plated at 5000 (SUM159) or 20000 (SUM149) cells per well in 6-well plates and treated the next day with inhibitors. Cells were counted every three days by cell counter. Cellular apoptosis was analyzed with an APC AnnexinV/7ADD Apoptosis Detection kit (BD Pharmingen). AnnexinV/7AAD assessments and cell cycle graphics were generated using FlowJo software V7.6.1 for Windows (Tree Star). Senescence Beta-gal staining was performed using Senescence β-Galactosidase staining kit from Cell signaling. Briefly, after JQ1 treatment (500 nM) for 72 h, SUM159 and MDA-MB-231 cells were fixed by Fixative Solution for 15 min, followed by β-Galactosidase solution incubation overnight at 37° C. The staining was checked under microscope for the development of blue color. […]

[5] = system: BRD4-MED1 association in SUM159R cells; assay: BRD4 immunoprecipitation followed by immunoblot for MED1, resistant cells; assay type: cell-based, human; conditions: SUM159R, 3 hrs treatment
Procedure: Cells were lysed five days after transfection with siRNAs in RIPA buffer. Proteins were resolved in SDS-polyacrylamide gels (4%-12%) and transferred to PVDF membranes by using a Tris-glycine buffer system. […] Cells were incubated on ice for 15 min and gently vortexed every 5 min. […] After centrifugation of the lysates at 14 g for 10 min at 4° C., supernatant was diluted with 0.6 ml buffer A, and added NP-40 to final 0.5% and treated with DNase I. The samples were then incubated at 4° C. overnight with BRD4 or Flag antibodies at 1:100 dilution and immunoprecipitates were collected on Dynabeads Protein G for 2 hr. Beads were washed with buffer B containing 150 mM NaCl and 0.5% NP-40 three times and then resuspended in gel loading buffer. Immunoblotting and immunoprecipitation experiments were repeated 2-3 times.

phospho-BRD4 (pBRD4) = assay: Immunoblot analysis of phospho-BRD4; assay type: cell-based, human; conditions: SUM159R, SUM149R, and other cell lines; short-term treatment
Source text: Immunoblotting and immunoprecipitation experiments were repeated 2-3 times.

[6] = summary statement, resistant cells

Row | SMILES | Tumor weight [1] | Tumor weight [2] | Synergy with JQ1 [3, 6] | Synergy with JQ1 ([3]; synergy screens, 72 hours) | further results
1 | N#CC[C@H](C1CCCC1)n1cc(-c2ncnc3[nH]ccc23)cn1 [INC424] | reduced tumor weight to a greater extent than the corresponding single therapy and JQ1 alone | reduced tumor weight to a greater extent than the corresponding single therapy and JQ1 alone |  |  | 
2 | CN(C)CC[C@H](CSc1ccccc1)Nc1ccc(S(=O)(=O)NC(=O)c2ccc(N3CCN(Cc4ccccc4-c4ccc(Cl)cc4)CC3)cc2)cc1[N+](=O)[O-] [ABT737, 4-[4-[[2-(4-chlorophenyl)phenyl]methyl]piperazin-1-yl]-N-[4-[[(2R)-4-(dimethylamino)-1-phenylsulfanylbutan-2-yl]amino]-3-nitrophenyl] sulfonylbenzamide] |  |  | substantial synergy | Significant synergy | 
3 | CC1(C)CCC(CN2CCN(c3ccc(C(=O)NS(=O)(=O)c4ccc(NCC5CCOCC5)c([N+](=O)[O-])c4)c(Oc4cnc5[nH]ccc5c4)c3)CC2)=C(c2ccc(Cl)cc2)C1 [ABT 199, 4-[4-[[2-(4-chlorophenyl)-4,4-dimethylcyclohexen-1-yl]methyl]piperazin-1-yl]-N-[3-nitro-4-(oxan-4-ylmethylamino)phenyl]sulfonyl-2-(1H-pyrrolo[2,3-b]pyridin-5-yloxy)benzamide] | reduced tumor weight to a greater extent than the corresponding single therapy and JQ1 alone | reduced tumor weight to a greater extent than the corresponding single therapy and JQ1 alone | substantial synergy |  | 
4 | COc1ccc(CCN(C)CCCC(C#N)(c2ccc(OC)c(OC)c2)C(C)C)cc1OC (centres unmarked) [verapamil] |  |  |  |  | Effect of co-incubation with MDR1 inhibitor on BBI-resistance [4]: had no effect
5 | c1ccc2c(c1)Nc1ccccc1S2 [phenothiazine] |  |  |  |  | MED1 abundance in BRD4 immunoprecipitation [5]: decreased MED1 abundance; pBRD4 levels (phospho-BRD4 (pBRD4)): rapid dephosphorylation of BRD4
6 | O=C(O)c1ccc2c(c1)nc(Nc1cccc(Cl)c1)c1ccncc12 [CX-4945, 5-(3-chloroanilino)benzo[c][2,6]naphthyridine-8-carboxylic acid] |  |  | substantial synergy | Significant synergy | 
7 | OCCN1CCN(CCCN2c3ccccc3Sc3ccc(Cl)cc32)CC1 [perphenazine] |  |  | substantial synergy | Significant synergy | 
8 | CC1(C)CCC(c2ccc(Cl)cc2)=C(CN2CCN(c3ccc(C(=O)NS(=O)(=O)c4ccc(N[C@H](CCN5CCOCC5)CSc5ccccc5)c(S(=O)(=O)C(F)(F)F)c4)cc3)CC2)C1 [ABT 263, 4-[4-[[2-(4-chlorophenyl)-5,5-dimethylcyclohexen-1-yl]methyl]piperazin-1-yl]-N-[4-[[(2R)-4-morpholin-4-yl-1-phenylsulfanylbutan-2-yl]amino]-3-(trifluoromethylsulfonyl)phenyl]sulfonylbenzamide] | reduced tumor weight to a greater extent than the corresponding single therapy and JQ1 alone | reduced tumor weight to a greater extent than the corresponding single therapy and JQ1 alone | substantial synergy |  | 
